Laboratory results from patent US11001615B2, “Mutated tau protein fragment and use thereof” (ADEL INC., priority 2016, dated 2021).
Square brackets hold non-standard residues; d marks the D form. Ends that are not written are not given here. pT = C[C@@H](OP(=O)(O)O)[C@H](N)C(=O)O

Tests used:
Tau-P301L dementia mice [1] = experiment: ELISA using plasma: antibody production against modified tau protein fragments; assay type: in vivo; conditions: ELISA using plasma after final administration; fragment with KLH and aluminum adjuvant, IP
Method: (§1) JNPL3 mice expressing Tau-P301L mutant gene were purchased from Taconic, and back-crossed with C57bl/6 mice for five generations in the experimental animal room of the Asan Institute for Life Sciences. Then, the mice were raised under a specific pathogen free (SPE) condition. For active immunization, the mice were administered, for six months starting from three months after birth at intervals of two weeks, two weeks, four weeks, four weeks, five weeks, four weeks, and one week in this order, the four modified tau protein fragments prepared in Preparation Example 1 together with keyhole limpet hemocyanin (KLH) as a carrier and an aluminum adjuvant. At this time, administration was carried out through intraperitoneal injection (IP injection). The dementia mice which were actively immunized by administration of the K280-ac fragment were designated as Tau-P301L-K280-ac.
In order to identify whether antibodies against the four modified tau protein fragments prepared in Preparation Example 1 were produced, the respective modified tau protein fragments or the full-length tau protein was finally administered, and then ELISA was performed using plasma.

Tau-P301L dementia mice [2] = experiment: Water maze test; assay type: in vivo; conditions: 5th day, platform removed; ranking after K280-ac
Method: as §1
An underwater maze test was performed to evaluate a learning and memory ability of the mice. […] Specifically, the underwater maze test took a total of 5 days. The mice were trained for 4 days in a state where a platform and a visual cue for the platform location are placed.
The learning was conducted by filling a swimming pool (1.4 m in diameter, 45 cm in depth) having a platform with water (29±0.5° C.) to a depth of about 26.5 cm, and then 1.5 L of whole milk powder was added to make water cloudy so that the mice can remember the platform with the cue only. Then, the mice were adapted to freely swim for 60 seconds and allowed to rest on the platform for 1 minute. The experiment was performed over a total of 12 times with 4 sets at three different starting positions. At the end of each test, 30 seconds of break time was given. At the end of one set, 30 to 45 minutes of break time was given.
After 4 days of learning, the test was performed on the 5th day. In the experiment for evaluation, the platform was not placed, and the number of staying in the area where the platform has been placed was measured in order to identify whether the mice visit well the platform location using the cue only. The test time was set for the mice to arrive at the location where the platform had been placed within one minute. If the mice fail to arrive at the platform location within one minute, the mice were removed out of the swimming pool.

pT231: protein fragment having the 226th to 236th amino acid sequence section of the tau protein in which the 231st amino acid is phosphorylated (VAVVR[pT]PPKSP)
antibodies against the fragment produced (Tau-P301L dementia mice [1]): well produced | number of arrivals, ranking among fragments (Tau-P301L dementia mice [2]): lowest number of times to arrive at the platform

Glu391: protein fragment having the 381st to 391st amino acid sequence section of the tau protein in which the C-terminus of the 391st amino acid is truncated (NAKAKTDHGAE)
antibodies against the fragment produced (Tau-P301L dementia mice [1]): well produced | number of arrivals, ranking among fragments (Tau-P301L dementia mice [2]): next highest increased number of arrivals

VQIVYK-ac: protein fragment having the 303rd to 316th amino acid sequence section of the tau protein in which the 306th to 311th amino acids are acetylated (GGSVQIVYKPVDLS; also: residues 306-311 (VQIVYK) acetylated; listed as Homo sapiens)
antibodies against the fragment produced (Tau-P301L dementia mice [1]): not well produced | number of arrivals, ranking among fragments (Tau-P301L dementia mice [2]): next highest increased number of arrivals
